Where two headings read alike, the source gives them in different places.
Biological target: T1, MDR1 (Homo sapiens, UniProt P08183)
T1 construct: The cDNA encoding respective transporters were synthetized and cloned by GenScript; host or cells: HEK293 (lentiviral transduction), membrane vesicles
Test: Vesicular transport inhibition assay, MDR1 membrane vesicles
Type: biochemical
Conditions: for Igut/IC50 ratio: MDR1, Igut = dose/250 mL, 500 mg dose of UT extract, ICH M12 cut-off 10; for IC50: oxindole alkaloids, substrate NMQ, read-out: IC50 (95% CI of IC50)
Source text: The human embryonic kidney 293 (HEK293) cell line was purchased from Invitrogen/ThermoFisher (Waltham, MA, USA). Madin–Darby canine kidney II (MDCKII) wild type cells were obtained from the European Collection of Authenticated Cell Cultures (ECACC catalog no. 00062107). HEK293 cells overexpressing the human uptake OATP1B1 (NCBI Reference Sequence: NM_006446.4), OATP1B3 (NM_019844), OATP2B1 (NM_007256), OATP1A2 (NM_134431), OAT1-3 (BC033682.1; NM_006672.3; BC022387), OCT1-3 (BC126364.1; NM_003058; NM_021977), OCTN1 (NM_003059.3), NTCP (NM_003049.3), MATE1 (NM_018242.3), MATE2K (NM_001099646.2), ENT4 (NM_001040661.1), SGLT2 (AJ133127.1), ASCT1/2 (NM_003038.5; NM_005628.3), LAT1/2 (NM_003486.6; NM_012244.4), and THTR1/2 (NM_006996; NM_025243) and mock and human efflux BCRP (NM_004827.2), BSEP (NM_003742.2), MDR1 (NM_000927.4), and MRP1-5 (NM_004996; NM_000392.4; BC137347.1; NM_005845.4; NM_005688.2) transporters as well as MDCKII overexpressing human ENT1/2 (NM_001078177; NM_001532.2) and URAT1 (BC053348) transporters were created by lentiviral transduction. The cDNA encoding respective transporters were synthetized and cloned by GenScript (Piscataway, NJ, USA). The production of lentivirus supernatants, the transduction of the cells, cloning, functional characterization, and validation were performed by Charles River Laboratories Hungary Kft. (Budapest, Hungary).
Membrane vesicles were prepared from ABC transporter-overexpressing HEK293 cells by Charles River Laboratories Hungary Kft. as described previously in detail. Vesicles were frozen in liquid nitrogen and stored at −80 °C.
Vesicular transport inhibition assays were performed using a rapid filtration technique. In brief, the appropriate amount of the protein of each membrane vesicle was mixed with either the extract or isopteropodine, mitraphylline, or uncarine D at one concentration or with their half dilution series from 150 µg/mL or from 100 µM, the suitable transporter substrate, and the assay buffer on ice. Reaction mixtures were preincubated for 15 min at 37 °C with shaking at 250 rpm. Following preincubation, 4 mM Mg-ATP or AMP was added and incubated according to Table S3. Vesicular transport was terminated by adding an ice-cold washing buffer, and the reaction mix was transferred to a MSFBN6B10 filter plate (Merck) for filtration. The filter plates were then dried at 40 °C for 4 h, and radiolabeled substrates retained in the vesicles were detected by liquid scintillation counting as described above. For fluorescent substrates, accumulation was measured with a Clariostar^plus microplate reader (BMG Labtech GmbH, Ortenberg, Germany).
The transporter-mediated uptake and ATP-dependent transport were determined by subtracting the activity of the control cell/transporter abundant-membrane in the presence of AMP from the activity of the transporter-overexpressing cell/transporter-abundant membrane in the presence of ATP. The relative transporter-specific accumulation was expressed as the percent of DMSO activity. The results were presented as the mean ± SEM from 3 parallels. More than a 20% reduction in transport activity was considered as inhibition. For the IC50 determination, dose–response curves were fitted using a 4-parameter nonlinear model in GraphPad Prism version 9.0. Confidence intervals (CIs) of 95% were also determined.
Table S3 – Vesicular transport inhibition assay details.
These parameters were set during previous validations. TC: taurocholic acid, E3S: estrone 3 -sulfate,
NMQ: N-methyl-quinidine, E217βG: β-Estradiol 17-(β-D-glucuronide), DHEAS:
Dehydroepiandrosterone sulfate, CDCF: 5(6)-Carboxy-2',7-dichlorofluorescein B.
Parental Transporter Incubation Substrate Substrate µg Incubation
cell time (min) concentration membrane/ temperature

T1 sequence (P08183 whole entry): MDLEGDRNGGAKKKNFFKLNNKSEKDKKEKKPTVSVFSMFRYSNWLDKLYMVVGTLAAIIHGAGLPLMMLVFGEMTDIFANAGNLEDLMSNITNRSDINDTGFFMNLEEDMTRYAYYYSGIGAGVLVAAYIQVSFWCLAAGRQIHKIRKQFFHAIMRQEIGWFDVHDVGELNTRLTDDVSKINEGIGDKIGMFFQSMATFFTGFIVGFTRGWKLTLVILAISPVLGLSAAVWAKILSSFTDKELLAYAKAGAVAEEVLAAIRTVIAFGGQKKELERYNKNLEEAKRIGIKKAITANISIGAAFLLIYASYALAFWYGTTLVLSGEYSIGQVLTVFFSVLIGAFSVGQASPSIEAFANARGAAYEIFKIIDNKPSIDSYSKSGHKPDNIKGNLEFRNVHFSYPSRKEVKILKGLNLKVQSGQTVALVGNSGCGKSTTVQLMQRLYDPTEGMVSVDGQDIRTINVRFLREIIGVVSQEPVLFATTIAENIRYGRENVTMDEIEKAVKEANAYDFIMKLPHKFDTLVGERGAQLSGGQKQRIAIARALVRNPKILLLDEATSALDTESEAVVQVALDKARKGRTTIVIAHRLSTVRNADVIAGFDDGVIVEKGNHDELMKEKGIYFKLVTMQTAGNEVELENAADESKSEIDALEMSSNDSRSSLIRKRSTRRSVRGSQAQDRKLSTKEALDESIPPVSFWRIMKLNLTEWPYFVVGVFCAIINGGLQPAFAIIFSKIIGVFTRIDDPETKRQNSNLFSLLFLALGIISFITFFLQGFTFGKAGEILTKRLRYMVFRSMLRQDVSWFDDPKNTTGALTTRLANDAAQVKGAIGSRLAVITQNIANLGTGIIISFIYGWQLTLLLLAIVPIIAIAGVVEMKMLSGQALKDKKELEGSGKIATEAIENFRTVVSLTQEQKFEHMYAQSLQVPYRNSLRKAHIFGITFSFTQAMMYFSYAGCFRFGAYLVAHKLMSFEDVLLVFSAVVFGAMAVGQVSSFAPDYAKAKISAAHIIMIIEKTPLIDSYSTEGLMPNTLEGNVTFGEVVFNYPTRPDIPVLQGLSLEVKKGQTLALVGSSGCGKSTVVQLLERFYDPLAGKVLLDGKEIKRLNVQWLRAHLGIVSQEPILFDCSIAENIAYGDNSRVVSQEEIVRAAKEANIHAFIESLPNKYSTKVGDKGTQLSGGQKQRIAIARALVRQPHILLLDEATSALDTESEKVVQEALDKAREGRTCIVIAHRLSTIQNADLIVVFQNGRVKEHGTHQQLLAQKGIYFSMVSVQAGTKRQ

## COC(=O)C1=CO[C@@H](C)[C@H]2CN3CC[C@]4(C(=O)Nc5ccccc54)[C@@H]3C[C@H]12 [mitraphylline]
  Igut/IC50 ratio: < 10
  IC50: 28.3 µM
In the presence of the alkaloid (100 µM, Figure 4)
  transporter-mediated substrate accumulation: below 50%
Listed as Mitraphylline
  IC50: 28.3 µM

## COC(=O)C1=CO[C@@H](C)[C@@H]2CN3CC[C@@]4(C(=O)Nc5ccccc54)[C@@H]3C[C@H]12 [isopteropodine]
100 µM alkaloid
  inhibitory effect on transporter-specific transport: significantly inhibited
  Igut/IC50 ratio: < 10
  IC50: 28.2 µM
Listed as Isopteropodine
  Igut/IC50 ratio: 0.82

— article PMC11597817, “Modulation of Multispecific Transporters by Uncaria tomentosa Extract and Its Major Phytoconstituents” (Pharmaceutics, 2024)
